# Measurements taken from patent publication EP1300161A1, “Cationic lipids suitable for gene transfer” (rubitec Gesellschaft für Innovation und Technologie der …, priority 2001, dated 2003).
# “Also recorded” adds a separate entry of the source.
# Experiments:
# [1] = tested on: polarized cell line MDCK-C7
# COS-7 cell-line [2] = test: Lipofection (luciferase reporter) transfection efficiency in COS-7 cells; format: cell-based, African green monkey
# Source text: Screening / Lipofection studies: For a broad and reproducible testing the transfection properties of systematically varied new cationic lipids, we recently have developed an fully automated high throughput system ([…]. et al., J. Biomol. Screening (2001)). This system, which comprises the entire lipofection process from liposome formation to reporter gene assay, allows to identify candidate cationic lipids and to develop suitable lipofection reagents and protocols based on those lipids. Automation of this process was necessary, because manually testing of various cationic lipids or lipid mixtures is extremely labor intensive and high reproducibility can not be guarantied. Goal of this first step was to find the cationic lipid with the best hydrocarbon chain composition for the development of suitable lipofection reagents and protocols. All lipids with different hydrocarbon chains (lipids 1-16, table 1) which are R-configurated and have chloride as counter ion were tested using a standard protocol: From each lipid, eight different lipoplexes containing equimolar amounts of the helper lipid DOPE were formed using different DNA:lipid-charge ratios from 1:1 - 1:15, resulting in a lipofection profile for each lipid (fig. 1). The COS-7 cell-line was used for this first lipofection study because COS-7 is easy to transfect and differences between the lipids are easy to identify. For comparison, the transfection efficiency of the well know cationic lipid DOTAP at its best lipid/DNA charge ration of 2.5 was also determined in each run. Cell culture: The initial transfection screening was carried out using COS-7 cells. The cells were maintained in 96-well culture plates (Greiner, Frickenhausen, Germany) in 200 μl EMEM/10 % FCS/1 % Penicillin-streptomycin in a humidified atmosphere at 37 °C/5 % CO2. […] For the subsequent quantification of transfection efficiency (part 2) a reporter plasmid carrying the firefly luciferase gene under the control of the CMV promoter is used to form lipoplexes. […]
# primary dendritic cells = test: Lipofection transfection efficiency in primary dendritic cells; format: cell-based, human
# [3] = tested on: mamma carcinoma cell line MDA-MB-468; test: Lipofection transfection efficiency in MDA-MB-468 cells; format: cell-based
# [4] = tested on: mamma carcinoma cell line MCF-7; test: Lipofection transfection efficiency in MCF-7 cells; format: cell-based
# COS-7 cell-line [5] = test: Lipofection (luciferase reporter) transfection efficiency in COS-7 cells; format: cell-based, African green monkey; remark: listed apart in the source
# [6] = Cytotoxicity of lipoplexes (protein content of transfected versus non-transfected cells); format: cell-based, African green monkey; conditions: monkey, cos-7 cells; equimolar DOPE, COS-7; read-out: vitality of the cells at maximum transfection efficiency
# Protocol: (§1) Goal of this first step was to find the cationic lipid with the best hydrocarbon chain composition for the development of suitable lipofection reagents and protocols. All lipids with different hydrocarbon chains (lipids 1-16, table 1) which are R-configurated and have chloride as counter ion were tested using a standard protocol: From each lipid, […] DNA:lipid-charge ratios from 1:1 - 1:15, resulting in a lipofection profile for each lipid (fig. 1). The COS-7 cell-line was used for this first lipofection study because COS-7 is easy to transfect and differences between the lipids are easy to identify. For comparison, the transfection efficiency of the well know cationic lipid DOTAP at its best lipid/DNA charge ration of 2.5 was also determined in each run. Part 2 (Transfection assays): After lipoplex formation, the robot took the cell culture microtiter plates from an incubator and removed the lid from the plates. Immediately prior to transfection, 100 µl of the culture medium were removed and the lipoplexes were dispensed into the wells (triplicates). The lids were replaced and the MTP were returned to the incubator. […] Assay specific standards and controls were added to the microplates, and luciferase activity and protein content of the lysates were measured. Transfection efficiencies were calculated by dividing luciferase activity by protein content.
# COS-7 cell-line [7] = test: as above; format: cell-based, African green monkey; conditions: Chol as helper lipid, ratio 0.7, chloride
# Protocol: as §1
# [8] = racemic, chloride, 70 mol-% cholesterol, MDA-MB-468
# [9] = racemic, chloride, 70 mol-% cholesterol
structure (smiles),measurement,setting,value
"CCCCCCCC/C=C\CCCCCCCC(=O)OCC(C[N+](C)(C)C)OC(=O)CCCCCCC/C=C\CCCCCCCC (stereo not shown) [DOTAP, N-(1(2,-dioleyoyl)propyl)-N,N,N-trimethylammonium chloride, reference compound]",transfection efficiency,[1],"26,64 +/- 3,33 (2) rlu/µg protein/ml"
same,transfection efficiency,"COS-7 cell-line [2]; COS-7, lower line","466,72 +/- 320,44 (11) rlu/µg protein/ml"
same,transfection efficiency,"primary dendritic cells; DC 5day, lower line","3,18 +/- 5,87 (3) rlu/µg protein/ml"
same,transfection efficiency,"[3]; MDA-MB468, lower line","92,58 +/- 82,86 (9) rlu/µg protein/ml"
same,transfection efficiency,[4]; lower line,"101,65 +/- 93,42 (7) rlu/µg protein/ml"
CCCCCCCCCCCCCCN(CCCCCCCCCCCCCC)CC(O)CO (stereo not shown) [KL-14-analog which was not methylated],transfection,COS-7 cell-line [2]; not methylated analog,did not transfect at all
CCCCCCCCCCCCCC[N+](C)(CCCCCCCCCCCCCC)CC(O)CO (stereo not shown) [KL-14],"transfection efficiency, R- versus S-configuration","COS-7 cell-line [5]; Chol as helper lipid, ratio 0.7, chloride",statistically similar
same,Chol/KL-14 ratio giving highest transfection efficiency,COS-7 cell-line [5]; Cholesterol as helper lipid,0.5-0.7
same,transfection efficiency,"COS-7 cell-line [5]; Cholesterol as helper lipid, Chol/KL-14 ratios 0.3 - 1.2, compared with DOPE mixtures",always higher than for the mixtures of KL-14 with DOPE
same,transfection efficiency,"COS-7 cell-line [5]; DOPE as helper lipid, DOPE/KL-14 ratio 0.3 to 1.2",very high
same,transfection efficiency as % of the chloride values,"COS-7 cell-line [5]; racemic, counter ion acetate, cholesterol/KL-14 ratio 0.7",57%
same,transfection efficiency (comparison of counter ions),"COS-7 cell-line [5]; racemic, counter ion chloride, cholesterol/KL-14 ratio 0.7",highest transfection efficiency
same,transfection efficiency as % of the values found for chloride,"COS-7 cell-line [5]; racemic, counter ion methylsulfate, cholesterol/KL-14 ratio 0.7",70-75%
same,transfection efficiency as % of the values found for chloride,"COS-7 cell-line [5]; racemic, counter ion sulfate, cholesterol/KL-14 ratio 0.7",70-75%
same,transfection efficiency as % of that of the standard lipid DOTAP,COS-7 cell-line [5]; without helper lipids,70%
same,viability,[6],~70%
same,"toxicity, R- versus S-configuration",COS-7 cell-line [7],statistically similar
same,factor by which transfection efficiency is reduced in comparison with COS-7-cells,[1],about 100
same,"transfection efficiency, fold increase over DOTAP",[1],1.5-2
same,transfection efficiency (comparison within the library),"COS-7 cell-line [2]; R-configurated, chloride, equimolar DOPE, COS-7",most effective; also recorded: highest transfection efficiency
same,factor by which transfection efficiency is reduced in comparison with COS-7-cells,"primary dendritic cells; racemic, chloride, 70 mol-% cholesterol, dendritic cell",about 600
same,"transfection efficiency, fold increase over DOTAP","primary dendritic cells; racemic, chloride, 70 mol-% cholesterol, dendritic cells",1.5-2
same,"transfection efficiency, DOPE-formulation compared with cholesterol mixture","[3]; equimolar mixture with DOPE, MDA-MB-468",lower
same,factor by which transfection efficiency is reduced in comparison with COS-7-cells,[3]; [8],about 12
same,"transfection efficiency, times higher than for DOTAP",[3]; [8],8
same,"transfection efficiency, DOPE-formulation compared with cholesterol mixture",[4]; equimolar mixture with DOPE,lower
same,factor by which transfection efficiency is reduced in comparison with COS-7-cells,[4]; [9],about 12
same,"transfection efficiency, times higher than for DOTAP",[4]; [9],8
